Laboratory results reported in US10407395B2, “Benzimidazole compound and medical use thereof” (Sumitomo Dainippon Pharma Co., Ltd., priority 2015, dated 2019).

Biological target: human SCN9A (Nav 1.7) (Homo sapiens, UniProt Q15858)
Experiment: Measurement of Na ion current (Nav 1.7) by automated patch clamp assay in cells stably-expressing human SCN9A
Type: cell-based
Details: compound concentration 10 μmol/L; holding potential inactivating 50% Nav 1.7 channel (around −60 mV); read-out: Inhibitory rate (%) of Na ion current
Description: Measurement of Na Ion Current in Voltage-Dependent Na Channel Gene Expressed Cell Nav 1.7 current was measured by automated patch clamp assay using cells stably-expressing human SCN9A. Cells Stably-expressing Human SCN9A Tetracycline-induced cells stably-expressing SCN9A were obtained from ChanTest Corporation. […] Next day, the Na ion current was measured by automated patch clamp assay. Electrophysiologic Measurement of Na Ion Current The Na ion current was measured by automated patch clamp assay using the following extracellular solution and intracellular solution. […] The control of the stimulating pulse and the data acquisition were carried out using EPC10 amplifier and Patch Master Software (HEKA). Data were sampled at 10 kHz, and low-pass filtered at 3 kHz. All the measurements were carried out at room temperature. […] The inhibitory rate of the Na ion current by the test compounds was calculated according to the following calculating formula with the peak current value generated by the depolarizing pulse. […] The inhibitory rate of Na ion current by each Example Compound was evaluated.

Sequence of human SCN9A (Nav 1.7) (Q15858 whole entry): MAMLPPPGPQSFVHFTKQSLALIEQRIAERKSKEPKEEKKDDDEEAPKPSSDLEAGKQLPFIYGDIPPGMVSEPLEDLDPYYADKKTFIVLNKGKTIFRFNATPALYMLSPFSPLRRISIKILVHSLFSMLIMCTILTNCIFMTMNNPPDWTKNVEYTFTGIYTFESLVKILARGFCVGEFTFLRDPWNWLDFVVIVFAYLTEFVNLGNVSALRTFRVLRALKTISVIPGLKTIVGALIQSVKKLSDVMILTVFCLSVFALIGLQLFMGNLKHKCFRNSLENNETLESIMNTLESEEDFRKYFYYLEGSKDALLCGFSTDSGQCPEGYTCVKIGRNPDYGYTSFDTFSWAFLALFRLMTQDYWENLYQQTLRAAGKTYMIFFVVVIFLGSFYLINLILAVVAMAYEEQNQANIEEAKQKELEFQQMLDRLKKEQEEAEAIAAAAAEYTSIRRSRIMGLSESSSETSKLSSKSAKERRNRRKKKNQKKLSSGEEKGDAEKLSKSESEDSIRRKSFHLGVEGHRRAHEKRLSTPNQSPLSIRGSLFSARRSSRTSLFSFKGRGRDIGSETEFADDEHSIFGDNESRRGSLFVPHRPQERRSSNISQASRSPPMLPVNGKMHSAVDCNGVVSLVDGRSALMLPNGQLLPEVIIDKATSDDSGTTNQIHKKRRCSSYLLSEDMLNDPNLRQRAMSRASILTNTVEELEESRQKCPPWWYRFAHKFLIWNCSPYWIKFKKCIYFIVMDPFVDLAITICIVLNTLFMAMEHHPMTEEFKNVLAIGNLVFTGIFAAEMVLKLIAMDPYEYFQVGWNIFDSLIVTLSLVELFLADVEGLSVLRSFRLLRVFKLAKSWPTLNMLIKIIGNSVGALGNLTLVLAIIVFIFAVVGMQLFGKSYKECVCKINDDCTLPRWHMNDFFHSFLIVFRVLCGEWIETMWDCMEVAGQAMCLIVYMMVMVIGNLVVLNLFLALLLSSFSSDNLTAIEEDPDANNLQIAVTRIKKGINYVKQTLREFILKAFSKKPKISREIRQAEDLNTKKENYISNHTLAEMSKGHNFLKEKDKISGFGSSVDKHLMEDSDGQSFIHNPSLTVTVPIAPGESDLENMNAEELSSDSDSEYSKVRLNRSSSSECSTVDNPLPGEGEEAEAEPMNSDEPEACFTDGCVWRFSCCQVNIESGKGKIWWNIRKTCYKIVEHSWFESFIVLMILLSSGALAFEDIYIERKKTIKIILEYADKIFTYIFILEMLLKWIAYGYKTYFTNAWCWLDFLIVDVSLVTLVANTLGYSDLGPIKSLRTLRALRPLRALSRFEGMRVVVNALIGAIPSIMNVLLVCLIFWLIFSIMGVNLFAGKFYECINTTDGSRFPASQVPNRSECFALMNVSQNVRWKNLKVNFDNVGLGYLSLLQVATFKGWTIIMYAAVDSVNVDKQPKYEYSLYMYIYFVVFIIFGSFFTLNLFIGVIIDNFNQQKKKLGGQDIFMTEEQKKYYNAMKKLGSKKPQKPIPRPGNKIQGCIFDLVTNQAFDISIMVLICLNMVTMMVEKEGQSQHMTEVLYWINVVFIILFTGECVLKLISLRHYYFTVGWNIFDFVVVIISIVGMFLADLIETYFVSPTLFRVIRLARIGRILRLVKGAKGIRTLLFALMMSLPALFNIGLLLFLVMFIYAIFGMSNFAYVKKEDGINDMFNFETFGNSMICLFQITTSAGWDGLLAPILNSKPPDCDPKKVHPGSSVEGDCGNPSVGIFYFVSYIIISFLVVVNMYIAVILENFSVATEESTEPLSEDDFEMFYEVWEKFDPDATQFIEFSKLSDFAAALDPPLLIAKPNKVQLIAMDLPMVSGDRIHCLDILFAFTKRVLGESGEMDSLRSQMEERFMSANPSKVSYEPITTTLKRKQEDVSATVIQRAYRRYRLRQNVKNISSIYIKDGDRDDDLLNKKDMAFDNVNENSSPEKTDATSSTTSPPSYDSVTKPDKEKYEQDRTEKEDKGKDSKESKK

| inhibition at 10 µM [%] | SMILES |
| --- | --- |
| 42 | CC(C)(O)Cn1cnc2cc(-c3ccc(F)c(Cl)c3)ccc21 [Example 190] |
| 52 | OC1(Cn2cnc3ccc(Oc4cc(Cl)cc(Cl)c4)cc32)COC1 [Example 111] |
| 48 | Cc1ccc(Cl)cc1-c1ccc2c(c1)ncn2CC1(O)COC1 [Example 209] |
| 13 | COc1ccc(-c2ccc3ncn(CC(C)(C)O)c3c2)cn1 [Example 125] |
| 35 | CC(C)(O)Cn1cnc2ccc(-c3cccc(Cl)c3)cc21 [Example 139] |
| 47 | OC1(Cn2cnc3ccc(Oc4ccc(C(F)(F)F)cn4)cc32)CC1 [Example 57] |
| 48 | CC(C)(O)Cn1cnc2ccc(-c3ccc(Cl)cc3F)cc21 [Example 130, 1-[6-(4-chloro-2-fluorophenyl)-1H-benzimidazol-1-yl]-2-methylpropan-2-ol] |
| 16 | Cc1ccc(Oc2ccc3ncn(CC4(O)COC4)c3c2)cc1 [Example 92] |
| 57 | CC(C)(O)Cn1cnc2ccc(Oc3ccc(CC(F)(F)F)cc3)cc21 [Example 104] |
| 67 | CC(C)(O)Cn1cnc2cc(-c3ccc(C(F)(F)F)cc3)ccc21 [Example 184] |
| 39 | OC1(Cn2cnc3ccc(Oc4cc(Cl)ccc4Cl)cc32)COC1 [Example 112] |
| 53 | COc1cccc(-c2ccc3c(c2)ncn3CC2(O)COC2)c1Cl [Example 216] |
| 28 | OC1(Cn2cnc3cc(-c4ccc(OC(F)(F)F)cc4)ccc32)COC1 [Example 204] |
| 17 | CC(C)(O)Cn1cnc2ccc(-c3ccoc3)cc21 [Example 146] |
| 59 | CC(C)(O)CCn1cnc2ccc(Oc3ccc(C(F)(F)F)cc3)cc21 [Example 102] |
| 45 | Cc1c(Cl)cccc1-c1ccc2ncn(CC3(O)COC3)c2c1 [Example 159] |
| 25 | CC(C)(O)CCn1cnc2ccc(Oc3cccc(F)c3)cc21 [Example 98] |
| 43 | Cc1c(Cl)cccc1-c1ccc2c(c1)ncn2CC1(O)COC1 [Example 208] |
| 48 | OC1(Cn2cnc3ccc(Oc4ccc(C(F)(F)F)cn4)cc32)CCC1 [Example 58, 1-[(6-{[5-(trifluoromethyl)pyridin-2-yl]oxy}-1H-benzimidazol-1-yl)methyl]cyclobutanol] |
| 58 | OC1(Cn2cnc3ccc(Oc4ccc(F)cc4Cl)cc32)COC1 [Example 110, 3-{[6-(2-chloro-4-fluorophenoxy)-1H-benzimidazol-1-yl]methyl}oxetan-3-ol] |
| 10 | CC(C)(O)CCn1cnc2ccc(Oc3ccc(F)cc3)cc21 [Example 100] |
| 12 | Cc1ccc(Oc2ccc3ncn(CCC(C)(C)O)c3c2)cc1 [Example 99] |
| 62 | CC(C)(O)Cn1cnc2cc(Oc3ncc(Cl)cc3F)ccc21 [Example 54, 1-{5-[(5-chloro-3-fluoropyridin-2-yl)oxy]-1H-benzimidazol-1-yl}-2-methylpropan-2-ol] |

| inhibition at 10 µM [%] | SMILES |
| --- | --- |
| 58 | FC(F)(F)c1ccc(-c2ccc3ncn(CCOC4CCCC4)c3c2)nc1 [Example 12, 1-[2-(cyclopentyloxy)ethyl]-6-[5-(trifluoromethyl)pyridin-2-yl]-1H-benzimidazole] |
| 46 | Cc1cc(Cl)cc(-c2ccc3ncn(CC4(O)COC4)c3c2)c1 [Example 169] |
| 29 | CC(C)(O)Cn1cnc2ccc(-c3ccc(S(C)(=O)=O)cc3F)cc21 [Example 135] |
| 72 | CC(C)(O)Cn1cnc2ccc(Oc3ccc(C(F)(F)F)nc3)cc21 [Example 25, 2-methyl-1-(6-{[6-(trifluoromethyl)pyridin-3-yl]oxy}-1H-benzimidazol-1-yl)propan-2-ol] |
| 24 | CC(C)(O)Cn1cnc2ccc(-c3ccccc3OC(F)(F)F)cc21 [Example 140] |
| 52 | FC(F)(F)c1ccc(-c2ccc3ncn(CCOC4CCCC4)c3c2)cc1 [Example 10, 1-[2-(cyclopentyloxy)ethyl]-6-[4-(trifluoromethyl)phenyl]-1H-benzimidazole] |
| 25 | Cc1ccc(Cl)cc1-c1ccc2ncn(CC3(O)COC3)c2c1 [Example 160] |
| 45 | CC(C)(O)Cn1cnc2cc(-c3ccc(Cl)cc3Cl)ccc21 [Example 185] |
| 21 | CC(C)(O)Cn1cnc2cc(-c3cnoc3)ccc21 [Example 202] |
| 75 | CC(C)(O)Cn1cnc2ccc(-c3ccc(C(F)(F)F)cn3)cc21 [Example 11, 2-methyl-1-{6-[5-(trifluoromethyl)pyridin-2-yl]-1H-benzimidazol-1-yl}propan-2-ol] |
| 35 | OC1(Cn2cnc3ccc(-c4cc(F)cc(Cl)c4)cc32)COC1 [Example 165] |
| 43 | CC(C)(O)Cn1cnc2cc(-c3cccc(C(F)(F)F)c3)ccc21 [Example 194] |
| 67 | FC(F)(F)c1ccc(-c2ccc3ncn(CC4CCCO4)c3c2)cc1 (stereo not shown) [Example 7, 1-(tetrahydrofuran-2-ylmethyl)-6-[4-(trifluoromethyl)phenyl]-1H-benzimidazole] |
| 55 | COc1cc(-c2ccc3c(c2)ncn3CC2(O)COC2)cc(C(F)(F)F)c1 [Example 212] |
| 53 | CC(C)(O)Cn1cnc2cc(Oc3ccc(C(F)(F)F)cc3F)ccc21 [Example 224, 1-{5-[2-fluoro-4-(trifluoromethyl)phenoxy]-1H-benzimidazol-1-yl}-2-methylpropan-2-ol] |
| 33 | CC(C)(O)Cn1cnc2cc(-c3ccc(C(F)(F)F)nc3)ccc21 [Example 180] |
| 69 | OC1(Cn2cnc3cc(-c4ccc(C(F)(F)F)cc4Cl)ccc32)COC1 [Example 206] |
| 52 | Fc1ccc(Oc2ccc3ncn(CCOC4CCCC4)c3c2)cc1 [Example 4, 1-[2-(cyclopentyloxy)ethyl]-6-(4-fluorophenoxy)-1H-benzimidazole] |
| 38 | OC1(Cn2cnc3ccc(Oc4ccc(CC(F)(F)F)cc4)cc32)COC1 [Example 105] |
| 36 | OC1(Cn2cnc3ccc(Oc4ccc(C(F)(F)F)cn4)cc32)CCCC1 [Example 119] |
| 33 | CC(C)(O)Cn1cnc2cc(-c3ccccc3OC(F)(F)F)ccc21 [Example 197] |
| 39 | CC(C)(O)Cn1cnc2ccc(-c3ccc(F)cc3)cc21 [Example 5, 1-[6-(4-fluorophenyl)-1H-benzimidazol-1-yl]-2-methylpropan-2-ol] |
| 65 | OC1(Cn2cnc3cc(-c4ccc(Cl)cc4C(F)(F)F)ccc32)COC1 [Example 207] |

| inhibition at 10 µM [%] | SMILES |
| --- | --- |
| 51 | OC1(Cn2cnc3ccc(Oc4ccc(Cl)c(Cl)c4)cc32)COC1 [Example 107] |
| 31 | OC1(Cn2cnc3ccc(Oc4ccc5ncccc5c4)cc32)COC1 [Example 115] |
| 15 | OC1(Cn2cnc3ccc(Oc4ccc(F)cc4)cc32)COC1 [Example 90] |
| 54 | OC1(Cn2cnc3ccc(-c4ccc(Cl)cc4Cl)cc32)COC1 [Example 156] |
| 26 | OC1(Cn2cnc3cc(-c4ccc(C(F)(F)F)cc4F)ccc32)COC1 [Example 203] |
| 51 | CC(C)(O)Cn1cnc2cc(-c3ccc(Cl)cc3F)ccc21 [Example 188] |
| 83 | CC(C)(O)CCn1cnc2ccc(Oc3ccc(OC(F)(F)F)cc3)cc21 [Example 97] |
| 53 | CC(C)(O)Cn1cnc2ccc(-c3cccc(OC(F)(F)F)c3)cc21 [Example 141] |
| 42 | OC1(Cn2cnc3ccc(Oc4ccc(C(F)(F)F)cc4)cc32)COC1 [Example 93, 3-({6-[4-(trifluoromethyl)phenoxy]-1H-benzimidazol-1-yl}methyl)oxetan-3-ol] |
| 16 | CC(C)(O)Cn1cnc2cc(-c3ccc(F)cc3)ccc21 [Example 175, 1-[5-(4-fluorophenyl)-1H-benzimidazol-1-yl]-2-methylpropan-2-ol] |
| 48 | OC1(Cn2cnc3cc(-c4cc(C(F)(F)F)ccc4F)ccc32)COC1 [Example 210] |
| 52 | CC(C)(O)CCn1cnc2cc(-c3ccc(Cl)cc3)ccc21 [Example 220] |
| 51 | OC1(Cn2cnc3ccc(-c4cc(Cl)ccc4Cl)cc32)COC1 [Example 157] |
| 11 | C[C@](O)(CO)Cn1cnc2ccc(Oc3ccc(C(F)(F)F)cn3)cc21 [Example 227, (2R)-2-methyl-3-(6-{[5-(trifluoromethyl)pyridin-2-yl]oxy}-1H-benzimidazol-1-yl)propane-1,2-diol] |
| 41 | Cc1cc(-c2ccc3c(c2)ncn3CC2(O)COC2)cc(C(F)(F)F)c1 [Example 213] |
| 25 | CC(C)(O)Cn1cnc2ccc(Oc3ccccc3)cc21 [Example 13, 2-methyl-1-(6-phenoxy-1H-benzimidazol-1-yl)propan-2-ol] |
| 14 | CC(C)(O)Cn1cnc2ccc(-c3ccc(C(F)(F)F)nc3)cc21 [Example 122] |
| 55 | COc1cc(-c2ccc3ncn(CC(C)(C)O)c3c2)cc(C(F)(F)F)c1 [Example 142] |
| 64 | CC(C)(O)CCn1cnc2ccc(-c3ccc(C(F)(F)F)cc3)cc21 [Example 172] |
| 63 | Cc1cc(-c2ccc3ncn(CC4(O)COC4)c3c2)cc(C(F)(F)F)c1 [Example 164] |
| 49 | CC(C)(O)Cn1cnc2cc(-c3cccc(Cl)c3)ccc21 [Example 196] |
